# According to the supplement of paper PMC10307832:
# Assays:
# Test in all cases: relative viability (nuclei count vs DMSO), 5 days (fraction); higher = more cells survive
# Bosutinib + Bortezomib = compound: COc1cc(Nc2c(C#N)cnc3cc(OCCCN4CCN(C)CC4)c(OC)cc23)c(Cl)cc1Cl [Bosutinib] + CC(C)C[C@H](NC(=O)[C@H](Cc1ccccc1)NC(=O)c1cnccn1)B(O)O [Bortezomib] (partner 0.002 µM)
# Method in brief: (§1)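 Each reported value is a median over duplicate plates. It expresses relative viability: treated-well nuclei count divided by vehicle-well nuclei count. Lung cancer cell lines in 1536-well plates were dosed by pin tool a day after seeding, alone with one drug or with a fixed anchor-drug dose plus five library-drug doses (not always all listed) in √10 steps, and nuclei were counted after 5 days.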
# Bosutinib + Luminespib = compound: COc1cc(Nc2c(C#N)cnc3cc(OCCCN4CCN(C)CC4)c(OC)cc23)c(Cl)cc1Cl [Bosutinib] + CCNC(=O)c1noc(-c2cc(C(C)C)c(O)cc2O)c1-c1ccc(CN2CCOCC2)cc1 [Luminespib] (partner 0.01 µM)
# Method in brief: as §1
# Bosutinib + Foretinib = compound: COc1cc(Nc2c(C#N)cnc3cc(OCCCN4CCN(C)CC4)c(OC)cc23)c(Cl)cc1Cl [Bosutinib] + COc1cc2c(Oc3ccc(NC(=O)C4(C(=O)Nc5ccc(F)cc5)CC4)cc3F)ccnc2cc1OCCCN1CCOCC1 [Foretinib] (partner 0.25 µM)
# Method in brief: as §1
# Bosutinib + Tozasertib = compound: COc1cc(Nc2c(C#N)cnc3cc(OCCCN4CCN(C)CC4)c(OC)cc23)c(Cl)cc1Cl [Bosutinib] + Cc1cc(Nc2cc(N3CCN(C)CC3)nc(Sc3ccc(NC(=O)C4CC4)cc3)n2)n[nH]1 [Tozasertib] (partner 0.1 µM)
# Method in brief: as §1
# Bosutinib + Vorinostat = compound: COc1cc(Nc2c(C#N)cnc3cc(OCCCN4CCN(C)CC4)c(OC)cc23)c(Cl)cc1Cl [Bosutinib] + O=C(CCCCCCC(=O)Nc1ccccc1)NO [Vorinostat] (partner 1 µM)
# Method in brief: as §1
Cell Line,relative viability (Bosutinib + Bortezomib; first compound 0.01 µM),relative viability (Bosutinib + Bortezomib; first compound 0.03162 µM),relative viability (Bosutinib + Bortezomib; first compound 0.1 µM),relative viability (Bosutinib + Bortezomib; first compound 1 µM),relative viability (Bosutinib + Luminespib; first compound 0.01 µM),relative viability (Bosutinib + Luminespib; first compound 0.03162 µM),relative viability (Bosutinib + Luminespib; first compound 0.1 µM),relative viability (Bosutinib + Luminespib; first compound 1 µM),relative viability (Bosutinib + Foretinib; first compound 0.01 µM),relative viability (Bosutinib + Foretinib; first compound 0.03162 µM),relative viability (Bosutinib + Foretinib; first compound 0.1 µM),relative viability (Bosutinib + Foretinib; first compound 1 µM),relative viability (Bosutinib + Tozasertib; first compound 0.01 µM),relative viability (Bosutinib + Tozasertib; first compound 0.03162 µM),relative viability (Bosutinib + Tozasertib; first compound 0.1 µM),relative viability (Bosutinib + Tozasertib; first compound 1 µM),relative viability (Bosutinib + Vorinostat; first compound 0.01 µM),relative viability (Bosutinib + Vorinostat; first compound 0.03162 µM),relative viability (Bosutinib + Vorinostat; first compound 0.1 µM),relative viability (Bosutinib + Vorinostat; first compound 1 µM)
LOU-NH91,0.469,0.487,0.514,0.578,0.315,0.36,0.38,0.178,0.912,0.929,0.845,0.538,0.64,0.645,0.607,0.538,0.903,0.922,0.92,0.819
NCI-H358,–,–,–,–,0.28,0.331,0.372,0.439,0.896,0.705,0.648,0.494,0.101,0.106,0.109,0.113,0.634,0.697,0.548,0.483
NCI-H522,–,–,–,–,1.15,1.16,1.26,1.01,–,–,–,–,0.564,0.504,0.604,0.485,0.873,0.88,0.892,0.783
NCI-H1395,–,–,–,–,0.677,0.635,0.761,0.615,0.947,0.921,0.996,0.947,0.758,0.727,0.718,0.66,0.802,0.827,0.862,0.787
NCI-H1703,0.34,0.332,0.402,0.236,–,–,–,–,0.371,0.345,0.334,0.246,–,–,–,–,–,–,–,–
NCI-H1792,0.991,0.95,0.974,0.884,0.528,0.35,0.411,0.367,–,–,–,–,–,–,–,–,–,–,–,–
NCI-H1793,–,–,–,–,0.213,0.205,0.163,0.179,0.61,0.664,0.58,0.473,0.363,0.404,0.373,0.23,0.718,0.75,0.877,0.504
NCI-H1944,–,–,–,–,0.839,0.713,0.777,0.469,0.997,0.814,0.889,0.574,0.275,0.262,0.258,0.19,0.608,0.577,0.572,0.569
NCI-H2170,–,–,–,–,0.515,0.665,0.702,0.44,0.959,1,1.01,0.962,0.749,0.758,0.683,0.632,0.882,0.832,0.891,0.774
SK-MES-1,–,–,–,–,0.812,0.839,0.765,0.284,0.966,0.955,0.97,0.747,0.95,0.927,0.844,0.854,1.21,1.13,1.12,0.812
SW 900,–,–,–,–,0.154,–,0.183,0.15,0.806,–,1.04,0.721,0.521,–,0.586,0.507,0.605,0.531,0.671,0.409
